According to patent publication US8580809B2, “Filamin A-binding anti-inflammatory analgesic” (Pain Therapeutics, Inc., priority 2009, dated 2013):

Columns and labels:
[1] = target: T1, mu opiate receptor (MOR) (Rattus norvegicus, UniProt P33535); assay: MOR agonist activity using [35S]GTPγS binding assay in striatal membranes; assay type: biochemical; details: for MOR agonist activity, [35S]GTPγS binding to Gαo, FLNA-binding compound as agonist 0.1 μM: 0.1 μM compound; for MOR agonist activity, [35S]GTPγS binding to Gαo, FLNA-binding compound as agonist 0.1 μM / MOR agonist activity, [35S]GTPγS binding to Gαo, FLNA-binding compound as agonist 1 μM: striatal membranes; for MOR agonist activity, [35S]GTPγS binding to Gαo, 1 μM + BFNA: 1 μM compound + 1 μM β-funaltrexamine; for MOR agonist activity, [35S]GTPγS binding to Gαo, FLNA-binding compound as agonist 1 μM: 1 μM compound
T1 construct: from tissue; host or cells: rat striatal membrane preparation
T1 sequence (P33535 whole entry): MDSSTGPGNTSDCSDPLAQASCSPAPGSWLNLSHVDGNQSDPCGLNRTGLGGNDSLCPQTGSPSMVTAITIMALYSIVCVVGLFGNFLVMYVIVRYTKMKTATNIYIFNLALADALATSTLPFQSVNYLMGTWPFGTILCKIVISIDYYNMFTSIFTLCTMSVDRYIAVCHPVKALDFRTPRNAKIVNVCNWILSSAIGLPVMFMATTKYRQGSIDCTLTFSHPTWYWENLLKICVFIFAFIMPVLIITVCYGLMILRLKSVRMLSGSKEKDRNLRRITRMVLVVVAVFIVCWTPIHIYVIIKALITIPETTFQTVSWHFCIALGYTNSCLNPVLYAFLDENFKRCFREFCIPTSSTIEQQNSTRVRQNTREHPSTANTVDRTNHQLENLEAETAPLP

[2] = target: MOR (Rattus norvegicus, UniProt P33535); assay: Relative Gs/Go switching: MOR-G protein coupling in organotypic striatal slice cultures; details: striatal slice culture
MOR, sequence (P33535 whole entry): as above
Protocol: The threshold for significance was p<0.05.
Striatal slices (200 μM thickness) were prepared using a McIlwain tissue chopper (Mickle Laboratory Engineering Co., Surrey, UK).

[3] = Mouse hot-water tail-flick test; assay type: in vivo; details: oral, 56 mg/kg, at about 10-20 minutes
Protocol: The mouse “tail flick” test was used to assay the relative antinociceptive activity of compositions containing a compound to be assayed. This assay was substantially that disclosed by Xie et al., 2005 J. Neurosci 25:409-416.
The mouse hot-water tail-flick test was performed by placing the distal third of the tail in a water bath maintained at 52° C. The latency until tail withdrawal from the bath was determined and compared among the treatments. A 10 second cutoff was used to avoid tissue damage. Data are converted to percentage of antinociception by the following formula: (response latency−baseline latency)/(cutoff−baseline latency)×100 to generate dose-response curves. […] Relative potency was determined as a ratio of the A50 values.
To assess tolerance to the antinociceptive effect, the compound was administered twice daily for 7 days at an A90 dose (dose that results in a 90% antinociceptive effect in the 52° C. warm-water tail-flick test), and the tail-flick test was performed daily after the a.m. dose.

[4] = target: FLNA VAKGL pentapeptide (Bn-VAKGL) (Homo sapiens, UniProt P21333); assay: FITC-NLX-based FLNA screening assay (FLNA peptide binding assay)
Protocol: Streptavidin-coated 96-well plates (Reacti-Bind™ NeutrAvidin™ High binding capacity coated 96-well plate, Pierce-ENDOGEN) are washed three times with 200 μl of 50 mM Tris HCl, pH 7.4 according to the manufacturer's recommendation.
Bn-VAKGL peptide (0.5 mg/plate) is dissolved in 50 μl DMSO and then added to 4450 μl of 50 mM Tris HCl, pH 7.4, containing 100 mM NaCl and protease inhibitors (binding medium) as well as 500 μl superblock in PBS (Pierce-ENDOGEN) [final concentration for DMSO: 1%].
The washed streptavidin-coated plates are contacted with 5 μg/well of Bn-VAKGL (100 μl) for 1 hour (incubated) with constant shaking at 25° C. [50 μl of Bn-VAKGL peptide solution from B+50 μl binding medium, final concentration for DMSO: 0.5%]. At the end of the incubation, the plate is washed three times with 200 μl of ice-cold 50 mM Tris HCl, pH 7.4.
The final assay volume is 100 μl. At the end of incubation, the plate is washed twice with 100 μl of ice-cold 50 mM Tris, pH 7.4. The signal, bound-FITC-NLX is detected using a DTX-880 multi-mode plate reader (Beckman).
To screen the medicinal chemistry analogs (new compounds), each compound solution (1 μl) is added to the Bn-VAKGL coated streptavidin plate with 50 μl/well of binding medium followed immediately with addition of 50 μl of FITC-NLX (total assay volume/well is 100 μl). The final screening concentration for each compound is 10 μM. […]

[5] = target: filamin A (Homo sapiens, UniProt P21333); details: read-out: affinity of binding to filamin A; cited from earlier work
filamin A, sequence (P21333 whole entry): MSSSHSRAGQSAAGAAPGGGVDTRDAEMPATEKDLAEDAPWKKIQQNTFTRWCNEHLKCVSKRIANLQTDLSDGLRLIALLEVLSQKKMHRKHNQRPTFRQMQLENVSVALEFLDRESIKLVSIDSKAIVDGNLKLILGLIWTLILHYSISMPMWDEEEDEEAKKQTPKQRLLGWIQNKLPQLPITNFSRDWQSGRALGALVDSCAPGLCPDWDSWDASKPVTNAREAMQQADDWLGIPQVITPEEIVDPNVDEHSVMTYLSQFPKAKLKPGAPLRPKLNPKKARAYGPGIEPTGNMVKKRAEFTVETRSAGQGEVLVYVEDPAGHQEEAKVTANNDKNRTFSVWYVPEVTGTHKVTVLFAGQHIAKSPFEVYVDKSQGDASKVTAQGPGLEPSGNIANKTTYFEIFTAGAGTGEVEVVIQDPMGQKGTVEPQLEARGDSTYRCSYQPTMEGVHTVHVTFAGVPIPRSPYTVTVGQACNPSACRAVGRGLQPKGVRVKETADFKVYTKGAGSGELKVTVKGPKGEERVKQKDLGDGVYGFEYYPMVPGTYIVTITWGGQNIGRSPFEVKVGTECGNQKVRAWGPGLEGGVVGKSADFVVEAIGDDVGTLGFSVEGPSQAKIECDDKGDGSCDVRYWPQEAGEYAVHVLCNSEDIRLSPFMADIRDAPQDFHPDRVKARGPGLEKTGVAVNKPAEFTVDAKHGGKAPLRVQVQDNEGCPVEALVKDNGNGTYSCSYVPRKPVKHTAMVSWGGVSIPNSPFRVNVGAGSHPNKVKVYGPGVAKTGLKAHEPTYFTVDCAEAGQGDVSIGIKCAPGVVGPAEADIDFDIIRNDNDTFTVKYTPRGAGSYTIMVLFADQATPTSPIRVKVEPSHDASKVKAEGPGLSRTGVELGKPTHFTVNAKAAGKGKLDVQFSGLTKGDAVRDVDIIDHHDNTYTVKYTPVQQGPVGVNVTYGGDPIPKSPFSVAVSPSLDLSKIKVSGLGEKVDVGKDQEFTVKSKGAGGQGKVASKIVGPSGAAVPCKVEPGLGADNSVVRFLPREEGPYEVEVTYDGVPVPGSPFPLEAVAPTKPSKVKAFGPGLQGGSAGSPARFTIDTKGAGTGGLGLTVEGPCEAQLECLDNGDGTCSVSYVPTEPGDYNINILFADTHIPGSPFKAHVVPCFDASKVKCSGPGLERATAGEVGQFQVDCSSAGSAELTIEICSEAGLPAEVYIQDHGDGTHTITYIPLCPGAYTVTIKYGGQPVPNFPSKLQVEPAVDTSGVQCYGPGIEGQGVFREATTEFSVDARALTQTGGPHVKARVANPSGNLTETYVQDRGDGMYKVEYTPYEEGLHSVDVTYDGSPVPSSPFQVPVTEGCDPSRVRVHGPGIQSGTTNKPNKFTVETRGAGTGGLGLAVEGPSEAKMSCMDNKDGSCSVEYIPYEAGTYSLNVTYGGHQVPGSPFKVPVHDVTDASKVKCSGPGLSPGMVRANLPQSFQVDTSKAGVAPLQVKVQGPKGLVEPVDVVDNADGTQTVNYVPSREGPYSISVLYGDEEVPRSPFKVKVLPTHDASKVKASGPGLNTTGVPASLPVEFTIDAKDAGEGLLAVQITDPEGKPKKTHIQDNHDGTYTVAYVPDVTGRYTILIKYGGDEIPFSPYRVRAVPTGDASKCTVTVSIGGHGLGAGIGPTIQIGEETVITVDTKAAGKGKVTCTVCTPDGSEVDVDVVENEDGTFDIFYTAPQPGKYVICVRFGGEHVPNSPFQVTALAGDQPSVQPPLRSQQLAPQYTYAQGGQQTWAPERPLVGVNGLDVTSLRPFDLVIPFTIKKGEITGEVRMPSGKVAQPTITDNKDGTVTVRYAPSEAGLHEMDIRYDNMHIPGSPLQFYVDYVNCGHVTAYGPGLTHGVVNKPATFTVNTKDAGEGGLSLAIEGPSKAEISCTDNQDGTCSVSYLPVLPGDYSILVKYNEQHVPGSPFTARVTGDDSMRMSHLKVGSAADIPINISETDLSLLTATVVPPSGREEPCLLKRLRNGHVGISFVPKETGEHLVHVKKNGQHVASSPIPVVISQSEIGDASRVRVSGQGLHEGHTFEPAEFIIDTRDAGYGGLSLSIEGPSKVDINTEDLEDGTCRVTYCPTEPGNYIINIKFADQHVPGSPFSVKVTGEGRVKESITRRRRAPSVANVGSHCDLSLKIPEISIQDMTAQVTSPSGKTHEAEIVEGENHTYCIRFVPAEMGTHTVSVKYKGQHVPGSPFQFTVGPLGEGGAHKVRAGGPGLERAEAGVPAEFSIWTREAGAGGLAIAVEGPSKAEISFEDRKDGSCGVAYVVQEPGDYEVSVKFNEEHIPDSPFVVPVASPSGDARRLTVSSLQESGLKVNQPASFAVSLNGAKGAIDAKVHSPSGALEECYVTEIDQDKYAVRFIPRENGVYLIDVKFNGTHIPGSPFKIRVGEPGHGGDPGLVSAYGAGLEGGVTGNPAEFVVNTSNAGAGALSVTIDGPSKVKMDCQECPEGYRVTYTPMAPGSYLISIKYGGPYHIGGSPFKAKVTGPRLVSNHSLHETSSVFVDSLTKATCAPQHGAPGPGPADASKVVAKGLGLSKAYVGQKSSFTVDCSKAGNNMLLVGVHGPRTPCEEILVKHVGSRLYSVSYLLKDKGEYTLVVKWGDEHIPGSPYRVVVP

CC(=O)c1ccc(S(=O)(=O)N2CCC3(CC2)OCCN3S(=O)(=O)c2ccc(C(C)=O)cc2)cc1 [Compound C0011]
MOR agonist activity, [35S]GTPγS binding to Gαo, FLNA-binding compound as agonist 0.1 μM [1]: 217.0% | MOR agonist activity, [35S]GTPγS binding to Gαo, 1 μM + BFNA [1]: 19.0% | MOR agonist activity, [35S]GTPγS binding to Gαo, FLNA-binding compound as agonist 1 μM [1]: 305.0% | Go (MOR level in anti-Gαo immunoprecipitates), average ([2]; 10 μM): 1603.3 | Gs/Go-Coupled Ratio, average ([2]; 10 μM): 0.332 | Gs/olf (MOR level in anti-Gαs/olf immunoprecipitates), average ([2]; 10 μM): 534.3 | Go (MOR level in anti-Gαo immunoprecipitates), average ([2]; 100 μM): 1598.8 | Gs/Go-Coupled Ratio, average ([2]; 100 μM): 0.420 | Gs/olf (MOR level in anti-Gαs/olf immunoprecipitates), average ([2]; 100 μM): 658.2 | mean maximum antinociception amount [3]: about 70%

O=C(c1ccc([N+](=O)[O-])cc1)N1CCC2(CC1)OCCN2S(=O)(=O)c1ccc([N+](=O)[O-])cc1 [Compound C0033]
MOR agonist activity, [35S]GTPγS binding to Gαo, FLNA-binding compound as agonist 0.1 μM [1]: 134.5% | MOR agonist activity, [35S]GTPγS binding to Gαo, 1 μM + BFNA [1]: 76.6% | MOR agonist activity, [35S]GTPγS binding to Gαo, FLNA-binding compound as agonist 1 μM [1]: 186.4% | inhibition at 0.1 µM ([4]; read-out: Percent inhibition of FITC-NLX binding, 0.1 μM): 48.4% | inhibition at 1 µM ([4]; read-out: Percent inhibition of FITC-NLX binding, 1 μM): 51.3%

O=C1CC[C@@]2(O)[C@H]3Cc4ccc(O)c5c4[C@@]2(CCN3CC2CC2)[C@H]1O5 [NTX, naltrexone]
Kd [5]: ~4 pM

C=CCN1CC[C@]23c4c5ccc(O)c4O[C@H]2C(=O)CC[C@@]3(O)[C@H]1C5 [Naloxone, naloxone]
Kd [5]: ~4 pM
